Assay results taken from patent US5767298A, “Aminophospholipid compositions and uses thereof” (Indiana University Foundation, priority 1996, dated 1998).
One block for each compound: values may come before it.

How the values were obtained:
human erythrocytes [1] = experiment: Cleavage of C-DOP^3 HS in intact human erythrocytes (TLC, scintillation counting); format: cell-based; details: citrate buffer pH 5.5, 37° C.
Protocol: (§1) A. Timecourse of erythrocyte shape change (morphological index) induced in washed human erythrocytes by C-DOPS liposomes (200 μM) incubated in HBS. At 45 min (arrow), one set of cells was centrifuged, resuspended in citrate buffer (100 mM, pH 5.5) and re-incubated at 37° C. (open circles). Aliquots were fixed with glutaraldehyde and analyzed by light microscopy. B. Low pH-induced cleavage of C-DOP^3 HS in human erythrocytes. Washed human red cells were treated with C-DOP^3 HS (55 nCi) for 45 min at 37° C. in HBS. After centrifugation, the cells were resuspended in citrate buffer (pH 5.5) and reincubated at 37° C. At the indicated timepoints, lipids were extracted from aliquots of cells, C-DOP^3 HS and DOP^3 HS were separated by thin layer chromatography, and radiolabeled lipids were quantitated by scintillation counting.
Hydrolysis of C-DOPS in human erythrocytes. […]
Uncaging of the C-DOPS derivative was measured in human red blood cells in order to test the feasibility of using the compound as a probe of aminophospholipid transport in biological membranes. […] Cleavage of C-DOP^3 HS was measured directly in intact erythrocytes. […] Following exchange with citrate buffer (pH 5.5), the cells were incubated at 37° C. and hydrolysis was measured by analysis of extracted lipids separated by thin layer chromatography.

[2] = pH-dependent cleavage of caged aminophospholipids (MLVs, 1 h, 37° C., phosphate analysis of TLC-separated lipids); format: physicochemical; details: for cleavage at pH 3: after extended incubation at pH 3; for significant cleavage at physiologically desirable pH: pH 5.5-8, 37° C.; for cleavage at any pH: pH 3-8, 1 h, 37° C.; for pH of half-maximal cleavage: 1 h at 37° C.
Protocol: Derivatized aminophospholipids (C-DOPS (open circles), C-DOPE (filled circles), M-DOPE (open squares), D-DOPE (filled squares), T-DOPE (open triangles), and P-DOPE (filled triangles), 0.5 mM each) were suspended in citrate (pH 3, 4.5, and 6) or Hepes (pH 7 and 8) buffer and incubated for 1 h at 37° C.
pH-Dependent cleavage measurements. A chloroform solution of the "caged" aminophospholipid (0.1 μmol) being tested was dried under nitrogen and the lipid was resuspended in buffers (200 μL) of varying pH; pH 3 (50 mM citrate), pH 4.5 (50 mM citrate), pH 6 (50 mM citrate), pH 7 (50 mM Hepes), and pH 8 (50 mM Hepes), adjusted to physiological ionic strength (290-310 mOsM) with NaCl. Solutions were vortexed briefly to make multilamellar vesicles (MLVs) and placed in a shaking water bath for 1 h at 37° C. The reaction was quenched after 1 h with a Hepes buffer (0.5M, pH 8.0). The lipid was extracted and the aqueous phase washed twice with chloroform. The derivative was separated from DOPE or DOPS by normal phase silica TLC eluted with CHCl3:CH3OH:NH4OH:H2O (65:25:2.5:2.5). The fraction cleaved was determined by phosphate analysis of the corresponding iodine stained spots. A background measurement, not incubated at 37° C. for 1 h, but subjected to the same extraction and TLC procedures, was performed to correct for hydrolysis that occurred during workup. All measurements were completed in triplicate.
The pH dependence of cleavage of the DOPS and DOPE derivatives was determined by incubating lipid dispersions (MLVs) in buffers of varying pH for 1 h at 37° C. Hydrolysis was measured by phosphate analysis of TLC-separated products.

[3] = test system: aminophospholipid transporter, or "flippase"; details: cited from earlier work; for inhibition of flippase: Seigneuret & Devaux, 1984, Daleke & Huestis, 1985, Connor & Schroit, 1987, Bitbol et al.
human erythrocytes [4] = experiment: Back extraction of dilauroyl phospholipids from human erythrocytes with DOPC vesicles; format: cell-based
Protocol: (§2) Timecourse of erythrocyte shape change (MI) induced by suspensions of C-DLPS (200 μM, open circles, open triangles) and DLPC (200 μM, open squares) in HBS. After 15 min (arrow), one sample of cells (open circles) was centrifuged, resuspended in citrate buffer (100 mM, pH 5.5) and re-incubated at 37° C. At 15 or 75 min, aliquots of each sample were removed and treated with DOPC vesicles (20 mM, 5% HCT) for 15 min at 37° C. (closed symbols). At the indicated times aliquots were fixed with glutaraldehyde and analyzed by light microscopy.
Back extraction of dilauroyl phospholipids from human erythrocytes. Washed red blood cells were incubated with DLPS, DLPC, or C-DLPS (200 μM) in HBS at 50% HCT for 90 min at 37° C. After 15 min, an aliquot of the cells was removed and the short chain phospholipids in the outer monolayer were back extracted with sonicated DOPC vesicles (20 mM) in HBS at 5% HCT for 15 min at 37° C. A separate aliquot of C-DLPS-treated cells was removed at 15 min, centrifuged, resuspended in citrate buffer (pH 5.5), and reincubated at 37° C. After 60 min, an aliquot from the cells incubated at low pH was removed and the short chain phospholipids remaining in the outer monolayer were back extracted with DOPC. Two additional control experiments were performed: 1] DLPC (200 μM) was incorporated into cells as described above for 15 min and then back extracted with DOPC vesicles, and 2] cells without exogenously added lipid were incubated with DOPC vesicles under the conditions of the back extraction assay. In each of the forgoing experiments aliquots were removed at the prescribed time points and the morphological index was determined by light microscopy.

human erythrocytes [5] = experiment: Erythrocyte shape change (morphological index): incorporation, uncaging and transport of lipid; format: cell-based
Protocol: as §1
Washed human erythrocytes were incubated with sonicated suspensions of DLPS (200 μM, open circles, filled circles) or DLPC (200 μM, open squares) in citrate buffer pH 5.5 (open symbols) or in HBS (filled symbols) at 37° C. Aliquots were fixed with glutaraldehyde and analyzed by light microscopy.
as §2
Cells. Human erythrocytes were obtained from healthy adult volunteers by venipuncture and collected into EDTA (3.3 mM final concentration). Erythrocytes were pelleted by centrifugation (5 min, 3000 g), washed three times in Hepes buffered saline (HBS, 118 mM NaCl, 50 mM Hepes, 5 mM KCl, 1 mM MgSO4, 5 mM glucose, pH 8.25), and stored on ice at 50% hematocrit (HCT).
Phosphatidylserine transport assay. Previously washed erythrocytes were pelleted by centrifugation (5 min, 3000 g) and incubated at 50% HCT with sonicated DLPS, DLPC, C-DLPS, or C-DOPS vesicles (200 μM) in HBS according to the method of Daleke and Huestis (1985). At prescribed time points, the cells were fixed by adding 5 μL aliquots to 50 μL of glutaraldehyde (0.5%). Aliquots of fixed cells were examined by light microscopy for changes in cell morphology. Echinocytes were assigned scores of +1 to +5 based on the degree of […], discocytes were scored 0, and stomatocytes were given scores of -1 to -4 based on their degree of […] (Daleke & Huestis, 1989). Echinocytic shapes are indicative of cells with excess lipid in the outer monolayer, while stomatocytic shapes are indicative of cells with excess inner monolayer lipid (Sheetz & Singer, 1974). Thus, cell morphology can be used to measure the movement of exogenously added lipids from the outer to the inner monolayer. The average score of a field of 100 cells is defined as the morphological index (MI).
Hydrolysis of C-DOPS in human erythrocytes. Washed red blood cells were incubated with sonicated C-DOPS vesicles (200 μM) in HBS at 50% HCT for 45 min at 37° C. After 45 min (C-DOPS), the cells were centrifuged (16,000 g, 5 min) and the supernatant was removed. The cells were washed once with a citrate buffer (50 mM, 300 mOsM, pH 5.25) and then incubated at 20% HCT for varying lengths of time in citrate buffer. […] The final pH of the red cell suspensions in HBS was 7.58±0.02 and those suspensions in citrate buffer was 5.72±0.03 pH units. The values were corrected for temperature (37° C.). At the specified time points, an aliquot of cells was fixed and examined by light microscopy.

[6] = for time constant tau1 (initial fast component) / time constant tau2 (slow component): biexponential fit; for half-time for cleavage: citrate buffer, pH 5.5
Protocol: The extent of cleavage was determined by phosphate analysis of thin layer chromatographic separations of extracted lipids. The solid lines are non-linear least squares fits of the data to a double exponential equation (f(x)=α1*exp(-x/.tau.1)+α2*exp(-x/.tau.2)).
C-DOPE (0.5 mM, column 1) and C-DOPS (0.5 mM, columns 2-5) were suspended in citrate buffer, pH 5.5 (columns 1 and 2) containing Triton X-100 (0.1%, column 3), NaCl (1M, column 4) or egg PC (2.5 mM, column 5) and incubated for 1 h at 37° C. The extent of cleavage was quantitated by phosphate determination of thin layer chromatographic separations of extracted lipids. Kinetic parameters were determined by non-linear least squares fits of the data to a double exponential equation (see FIG. 2): A. Exponential coefficients α1 (open bars) and α2 (filled bars) B. Time constants .tau.1 (open bars) and .tau.2 (filled bars).
Chloroform solutions of C-DOPS or C-DOPE (0.1 μmol) were dried under nitrogen and resuspended in 200 μL of citrate buffer (50 mM, pH 5.5). MLVs were prepared as described above and placed in a shaking water bath at 37° C. At prescribed time points, the reaction was quenched with 50 μL of Hepes buffer (1M, pH 8.5), the lipid was extracted, and the amount of cleavage was determined by phosphate analysis of TLC-separated lipids.
In one set of experiments, the ionic strength of the citrate incubation buffer (pH 5.5) was raised by including 1M NaCl and cleavage was measured as described above. In a second set of experiments, C-DOPS cleavage was measured in the presence of Triton X-100 (0.1%). In a third set of experiments, a five fold excess of DOPC was add to the lipid suspensions to dilute the surface charge. In a fourth set of experiments, ethanol (0.05-0.5%), DTT (5 mM), aniline (1.5 mM), p-nitroaniline (1.5 mM), and DOPE (2.5 mM) were added in separate experiments to the incubation buffers as scavengers of the anhydride. The lipid products were extracted and isolated by thin-layer chromatography as described previously. A single time point at 2.5 or 3 h was analyzed. All measurements were completed in triplicate and data were fit to a biexponential equation (f(x)=α1*exp(-x/.tau.1)+α2*exp(-x/.tau.2)) using the program MacCurveFit (Kevin Raner, Mt. Waverley, Australia).

[7] = pH 5.5
Protocol: In a fourth set of experiments, ethanol (0.05-0.5%), DTT (5 mM), aniline (1.5 mM), p-nitroaniline (1.5 mM), and DOPE (2.5 mM) were added in separate experiments to the incubation buffers as scavengers of the anhydride. The lipid products were extracted and isolated by thin-layer chromatography as described previously. A single time point at 2.5 or 3 h was analyzed. All measurements were completed in triplicate and data were fit to a biexponential equation (f(x)=α1*exp(-x/.tau.1)+α2*exp(-x/.tau.2)) using the program MacCurveFit (Kevin Raner, Mt. Waverley, Australia).
This hypothesis was tested by using nucleophilic scavengers to trap the released anhydride. Both water soluble (dithiothreitol, ethanol) and lipophilic (aniline, p-nitroaniline, and DOPE) scavengers were added to C-DOPS solutions and cleavage was measured at a timepoint when the slow rate of cleavage predominated (Table II).

[8] = after incorporation in HBS (15 min)
[9] = 200 μM, citrate buffer (pH 5.5), 37° C.

Compound: citraconyl-dioleoylphosphatidyl-[3-^3 H]serine [C-DOP^3 HS]
cleavage in erythrocytes compared with model membranes (human erythrocytes [1]): followed a similar timecourse and extent in erythrocytes as in model membranes

cleavage at pH 3 [2]: 25% | significant cleavage at physiologically desirable pH [2]: did not occur
Compound: CCCCCCCC/C=C\CCCCCCCC(=O)OCC(COP(=O)(O)OCCNC(=O)c1ccccc1C(=O)O)OC(=O)CCCCCCC/C=C\CCCCCCCC (stereo not drawn) [P-DOPE, N-phthalyl-dioleoylphosphatidylethanolamine]

Compound: [Ca+2] [calcium]
inhibition of flippase [3]: inhibited

cleavage at any pH [2]: not cleaved to any appreciable extent
Compound: CCCCCCCC/C=C\CCCCCCCC(=O)OC[C@H](COP(=O)(O)OCCNC(=O)/C(C)=C(/C)C(=O)O)OC(=O)CCCCCCC/C=C\CCCCCCCC [D-DOPE, N-dimethylmaleyl-dioleoylphosphatidylethanolamine]

Compound: CCCCCCCCCCCC(=O)OCC(COP(=O)([O-])OCC[N+](C)(C)C)OC(=O)CCCCCCCCCCC (stereo not drawn) [DLPC, dilauroylphosphatidylcholine]
cell shape after back extraction with DOPC vesicles (human erythrocytes [4]; [8]): identical results | time echinocytic shape is retained (human erythrocytes [5]; [9]): more than 1.5 h | time to become echinocytic (human erythrocytes [5]; [9]): ≤ 2 min | shape changes at higher pH compared with pH 5.5 (human erythrocytes [5]; higher pH, data not shown): similar

Compound: phosphatidylserine [PS]
affinity of flippase relative to PE ([3]; PS versus PE, Zachowski et al., 1986): approximately ten-fold

time constant tau1 (initial fast component) ([6]; citrate buffer pH 5.5, 37° C.): 0.9 h | time constant tau2 (slow component) ([6]; citrate buffer pH 5.5, 37° C.): 7 h | half-time for cleavage [6]: 110 min | pH of half-maximal cleavage [2]: 5.5 pH
Compound: CCCCCCCC/C=C\CCCCCCCC(=O)OC[C@H](COP(=O)(O)OCCNC(=O)/C(C)=C\C(=O)O)OC(=O)CCCCCCC/C=C\CCCCCCCC [C-DOPE, N-citraconyl-dioleoylphosphatidylethanolamine]

Compound: CCCCCCCCCCCC(=O)OC[C@H](COP(=O)(O)OC[C@H](NC(=O)C(C)=CC(=O)O)C(=O)O)OC(=O)CCCCCCCCCCC [C-DLPS, N-citraconyl-dilauroylphosphatidylserine]
cell shape after back extraction with DOPC vesicles (human erythrocytes [4]; 15 min in HBS, then low pH for additional 60 min): reverted to stomatocytes | transbilayer location of lipid (human erythrocytes [4]; HBS): remains in the outer monolayer | cell shape after back extraction with DOPC vesicles (human erythrocytes [4]; [8]): reverted to discocytes | transbilayer location of lipid (portion) (human erythrocytes [4]; citrate buffer (low pH)): accumulates in the inner monolayer

Compound: N-3,4,5,6-tetrahydrophthalyl-phosphatidylethanolamine [T-DOPE]
cleavage at any pH [2]: not cleaved to any appreciable extent

initial cleavage rate relative to C-DOPE ([6]; citrate buffer pH 5.5, 37° C.): 6 fold | time constant tau1 (initial fast component) ([6]; citrate buffer pH 5.5, 37° C.): 0.15 h | time constant tau2 (slow component) ([6]; citrate buffer pH 5.5, 37° C.): 4.8 h | half-time for cleavage [6]: 85 min | % cleavage - scavenger ([7]; citrate buffer, 2.5 h): 55.2% | pH of half-maximal cleavage [2]: 6.5 pH
Compound: CCCCCCCC/C=C\CCCCCCCC(=O)OC[C@H](COP(=O)(O)OC[C@H](NC(=O)/C(C)=C\C(=O)O)C(=O)O)OC(=O)CCCCCCC/C=C\CCCCCCCC [C-DOPS, N-citraconyl-dioleoylphosphatidylserine]
effect of scavengers on slower second rate ([7]; dithiothreitol, ethanol, aniline, p-nitroaniline, DOPE): None of these scavengers attenuated the slower second rate | time cells remain echinocytic (human erythrocytes [5]; HBS, 37° C., 200 μM): more than 1.5 h | cell shape after exchange of buffer to low pH (human erythrocytes [5]; Hepes buffer exchanged for citrate buffer (pH 5.5)): reverted to a more discoid shape

cleavage at pH 3 [2]: 25% | significant cleavage at physiologically desirable pH [2]: did not occur
Compound: CCCCCCCC/C=C\CCCCCCCC(=O)OCC(COP(=O)(O)OCCNC(=O)/C=C\C(=O)O)OC(=O)CCCCCCC/C=C\CCCCCCCC (stereo not drawn) [M-DOPE, N-maleyl-dioleoylphosphatidylethanolamine]

Compound: CCCCCCCCCCCC(=O)OCC(COP(=O)(O)OCC(N)C(=O)O)OC(=O)CCCCCCCCCCC (stereo not drawn) [DLPS, dilauroylphosphatidylserine]
erythrocyte shape change (human erythrocytes [5]; 200 μM, HBS, 37° C.): became echinocytic initially but rapidly reverted to stomatocytes | erythrocyte shape change (human erythrocytes [5]; [9]): became echinocytic initially but rapidly reverted to stomatocytes

Compound: [O]=[V]([O-])([O-])[O-] [vanadate]
inhibition of flippase [3]: inhibited
